IC50 and inhibition data for 69 compounds are collected here from US10940139B2, “Compounds that interact with the Ras superfamily for the treatment of cancers, inflammatory diseases, rasopathies, and fibrotic disease” (Shy Therapeutics LLC, priority 2017, dated 2021).

Bounds are passed on as bounds.

One experiment has as its system MIA-PACA2 pancreatic cancer cell lines. Description: Cell proliferation assay (CellTiter 96 AQueous One). It is filed as cell-based. Conditions: Homo sapiens, MIA PaCa-2; MIA-PACA2, same assay as the % inhibition (standard conditions). How it is done: Cell lines: Tumor-derived pancreatic cancer cell lines MIA-PACA2 were purchased from ATCC and grown in complete DMEM-High Glucose medium supplemented with penicillin (100 U/mL), streptomycin (100 μg/mL), and 10% heat-inactivated FBS at 37° C. in a humidified incubator with 5% CO2.
Method: Cells are plated at 1000 cells/well density in 96-wells plate, starved ON, and the next day tested small molecules are added to the cells in the final concentration of 30 μM with 0.3% DMSO 3 hours prior to 10% FBS addition. After serum addition cells are incubated for 6 days at 37° C. in a humidified incubator with 5% CO2. For IC50 value determination, serial dilutions of compounds were added to cells under the same conditions.
Assay: At the end of the incubation period, cell cultures are tested using the CellTiter 96® AQueous One Solution Cell Proliferation Assay kit (Promega Corporation, Madison, Wis.) according to the manufacturer specifications. Briefly, assay is performed by adding 20 μl of the CellTiter 96 Aqueous One Solution Reagent directly to culture wells, followed by for 1-4 hours incubation at 37° C. in a humidified incubator with 5% CO2. At the end of incubation time, absorbance at 492 nm is recorded with the 96-well plate reader Eppendorf AF2200, and degree of small molecule-dependent proliferation inhibition is calculated from raw data assuming No Serum cells value as 100%.
The term IC50 denotes the concentration at which inhibition is half-maximal. Higher therefore signals weaker potency. As for `COCC(C)Nc1nc(-c2ccccn2)nc2sc(C)c(-c3ccccc3)c12` (stereo not shown) [drawing 1510], the 50% inhibitory concentration (IC50) was more than 1000 nM.
On the same count and under the same terms, the result for `Oc1nc(-c2ccccn2)nc2c(-c3cc(Cl)cc(Cl)c3)csc12` [drawing 1724] reads 100 to 500 nM; that for `Oc1nc(-c2ccccn2)nc2scc(Br)c12` [drawing 1589], 100 to 500 nM; that for `O=C(CN1CCN(c2nc(-c3ccccn3)nc3sc(-c4ccccc4)cc23)CC1)N1CCCC1` [drawing 1606], more than 1000 nM.

The same experiment, now with this note: Homo sapiens, MIA PaCa-2; at 30 μM, MIA-PACA2.
By inhibition is commonly meant the relative decrease from the control value, in per cent. Low readings indicate little suppression, high ones strong suppression. For `OCCNc1nc(-c2ccccn2)nc2scc(-c3ccccc3)c12` [drawing 1509], the inhibition at 30 µM lay within 76 to 100%.
For the compound `O=C(NCCc1cccnc1)c1csc2c(O)nc(-c3ccccn3)nc12` [drawing 1578], the inhibition at 30 µM fell in the range of 76 to 100%.
Same read-out and setting: the result for `CS(=O)(=O)N1CCCc2cc(C(=O)Nc3nnc(-c4ccccn4)[nH]3)ccc21` [drawing 1469] reads 76 to 100%.
On the same count and under the same terms, the result for `O=C(c1csc2c(O)nc(-c3ccccn3)nc12)N1CC2CC1CN2c1ccccc1` (stereo not shown) [drawing 1714] reads 76 to 100%; that for `Cc1sc2c(N)nc(-c3ccccn3)nc2c1-c1ccccc1` [drawing 1713], 76 to 100%.
On the same count and under the same terms, the value for `COc1ccc(CN(CC[S+]([O-])c2cc(Cl)ccc2Cl)C2CC2)cc1` (stereo not shown) [drawing 1530] was 51 to 75%; that for `COCC(C)Nc1nc(-c2ccccn2)nc2sc(C)c(-c3ccccc3)c12` (stereo not shown) [drawing 1510] was 76 to 100%; that for `Oc1nc(-c2ccccn2)nc2c(-c3ccsc3)csc12` [drawing 1751] was 76 to 100%.
With `CCC(C)(C)c1ccc(OCCCC(=O)NC(C(=O)OC)C(C)C)c(C(C)(C)CC)c1` (stereo not shown) [drawing 1524], the inhibition at 30 µM was 76 to 100%.
The same measure, in the same setting: the value for `CCCCSc1nc(-c2cccs2)c(C(=O)C(F)(F)F)cc1C#N` [drawing 1523] was 76 to 100%; that for `Oc1nc(-c2ccccn2)nc2c(-c3cc(C(F)(F)F)ccc3F)csc12` [drawing 1787] was 76 to 100%.
`COc1ccc(CCN(C)C(=O)c2csc3nc(-c4ccccn4)nc(N4CCOCC4)c23)cn1` [drawing 1640] registered an inhibition at 30 µM of 76 to 100%.
The compound `COC(=O)c1cccc(CN2CCC(CSc3ccccc3)C2)c1C#N` (stereo not shown) [drawing 1517] displayed an inhibition at 30 µM of 76 to 100%.
Compound `CCCNC(=O)CN1CCN(c2nc(-c3ccccn3)nc3sc(-c4ccccc4)cc23)CC1` [drawing 1598] displayed an inhibition at 30 µM of 76 to 100%.
Still for that read-out and setting: the result for `Oc1nc(-c2ccccn2)nc2c(-c3cc(Cl)cc(Cl)c3)csc12` [drawing 1724] reads 76 to 100%.
Compound `Cc1cnc(-c2ccccn2)nc1NC(=O)Cc1ccc2cnccc2c1` [drawing 1732] came in with an inhibition at 30 µM of 76 to 100%.
Regarding `O=C(Nc1nnc(-c2ccccn2)[nH]1)C1CCN(C(=O)c2cccs2)CC1` [drawing 1465], the inhibition at 30 µM fell in the range of 76 to 100%.
On the same count and under the same terms, the result for `CC(C)C1=C(O)C2(CC2c2ccc(-c3ccccc3)cc2)C(C)CC1` (stereo not shown) [drawing 1540] reads 76 to 100%; that for `Oc1nc(-c2ccccn2)nc2c1CCCN2` [drawing 1542], 1 to 25%; that for `Oc1nc(-c2ccccn2)nc2c(-c3ccc4c(c3)CCCO4)csc12` [drawing 1778], 76 to 100%.
Compound `Nc1nc(O)c2scc(C(=O)N3CCC(N4CCCC4=O)CC3)c2n1` [drawing 1559] had an inhibition at 30 µM of 25 to 50%.
`OC1CCCN(c2nc(-c3ccccn3)nc3scc(-c4ccccc4)c23)C1` (stereo not shown) [drawing 1617] registered an inhibition at 30 µM of 76 to 100%.
As for `COc1ccccc1C1CC1C(=O)Nc1nnc(-c2ccccn2)[nH]1` (stereo not shown) [drawing 1447], the inhibition at 30 µM lay in the range of 25 to 50%.
Still for that read-out and setting: the value for `Cc1cc2nc(-c3ccccn3)nc(N)c2s1` [drawing 1712] was 76 to 100%; that for `O=C(Nc1nnc(-c2ccccn2)[nH]1)C1CC1c1ccc(F)cc1` (stereo not shown) [drawing 1432] was 51 to 75%.
On the same count and under the same terms, the value for `OCC1(c2ccc(-c3csc4c(O)nc(-c5ccccn5)nc34)cc2)CC1` [drawing 1762] was 76 to 100%; that for `O=C(Nc1nnc(-c2ccccn2)[nH]1)c1ccc(CN2C(=O)CCC2=O)cc1` [drawing 1405] was 1 to 25%; that for `O=C(Nc1nnc(-c2ccccn2)[nH]1)c1ccn(-c2ccccc2)n1` [drawing 1394] was 76 to 100%.
On the same count and under the same terms, the result for `COC(=O)C(C)CN(Cc1cc(Br)ccc1[N+](=O)[O-])C1CC1` (stereo not shown) [drawing 1534] reads 1 to 25%; that for `COc1cccc(CN2CCN(C(=O)c3csc4c(O)nc(-c5ccccn5)nc34)CC2)c1` [drawing 1656], 76 to 100%.
Compound `COc1ccc(C(=O)Nc2nc(-c3ccccn3)cs2)cn1` [drawing 1488] showed an inhibition at 30 µM of 76 to 100%.
As to `Cc1sc2nc(-c3ccccn3)nc(NCCCO)c2c1-c1ccccc1` [drawing 1516], the inhibition at 30 µM lay in the range of 76 to 100%.
The same measure, in the same setting: the result for `Oc1nc(-c2ccccn2)nc2c(-c3ccc(OC4CCOCC4)cc3)csc12` [drawing 1743] reads 76 to 100%; that for `COc1ccc(CC(=O)Nc2nnc(-c3ccccn3)[nH]2)cc1` [drawing 1408], 76 to 100%; that for `Nc1nc(-c2ccccn2)nc2scc(Br)c12` [drawing 1770], 1 to 25%.
On to `COc1ccc(OCc2nc(CNCCc3nnc4n3CCC4)cs2)cc1` [drawing 1472], for which the inhibition at 30 µM was 76 to 100%.
The same measure, in the same setting: the value for `Brc1csc2nc(-c3ccccn3)nc(N3CCOCC3)c12` [drawing 1587] was 25 to 50%; that for `O=C(c1ccc(=O)[nH]n1)N1CCCc2c(O)nc(-c3ccccn3)nc21` [drawing 1548] was 76 to 100%.
`CC1CCc2sc(C(=O)Nc3nnc(-c4ccccn4)[nH]3)cc2C1` (stereo not shown) [drawing 1443] registered an inhibition at 30 µM of 76 to 100%.
Same read-out and setting: the value for `Oc1nc(-c2ccccn2)nc2c(-c3ccnn3-c3ccccn3)csc12` [drawing 1780] was 76 to 100%.
The same measure, in the same setting: the value for `Cc1sc2c(N)nc(-c3ccccn3)nc2c1Br` [drawing 1769] was 76 to 100%.
The same measure, in the same setting: the result for `Oc1nc(-c2ccccn2)nc2scc(Br)c12` [drawing 1589] reads 76 to 100%.
`OC1CCN(c2nc(-c3ccccn3)nc3scc(-c4ccccc4)c23)CC1` [drawing 1619]: the inhibition at 30 µM fell in the range of 76 to 100%.
Take `O=C(c1csc2c(O)nc(-c3ccccn3)nc12)N1CCOC(c2nccs2)C1` (stereo not shown) [drawing 1636]: the inhibition at 30 µM was 76 to 100%.
Compound `Oc1nc(-c2ccccn2)nc2c1ncn2-c1ccccc1` [drawing 1583] gave an inhibition at 30 µM of 25 to 50%.
On the same count and under the same terms, the value for `COc1ccc(-c2csc3c(O)nc(-c4ccccn4)nc23)c(C)c1` [drawing 1757] was 76 to 100%.
`c1ccc(-c2csc3nc(-c4ccccn4)nc(N4CCN(Cc5cccnc5)CC4)c23)cc1` [drawing 1602] came in with an inhibition at 30 µM of 76 to 100%.
Regarding `O=C(Nc1nnc(-c2ccccn2)[nH]1)C1CCn2c(cnc2-c2ccccc2)C1` (stereo not shown) [drawing 1389], the inhibition at 30 µM lay within 1 to 25%.
In turn, `O=C(c1csc2c(O)nc(-c3ccccn3)nc12)N1CCN(c2cccc(F)c2)CC1` [drawing 1647] came in with an inhibition at 30 µM of 76 to 100%.
Turning to `Cc1c(C(=O)Nc2nnc(-c3ccccn3)[nH]2)oc2ccccc12` [drawing 1395], the inhibition at 30 µM was in the range of 76 to 100%.
`OCCOCCNc1nc(-c2ccccn2)nc2scc(-c3ccccc3)c12` [drawing 1515] returned an inhibition at 30 µM of 76 to 100%.
On to `Cc1ccc(CC(=O)Nc2nnc(-c3ccccn3)[nH]2)cn1` [drawing 1419], for which the inhibition at 30 µM lay in the range of 51 to 75%.
As to `Cc1ccc(CN(Cc2ccco2)C(=O)c2oc3ccccc3c2C)cc1` [drawing 1520], the inhibition at 30 µM lay within 1 to 25%.
Still for that read-out and setting: the value for `Oc1nc(-c2ccccn2)nc2c(-c3cnc4ccccc4c3)csc12` [drawing 1784] was 76 to 100%; that for `CC(C)C(=O)Nc1nc(CC(=O)Nc2nnc(-c3ccccn3)[nH]2)cs1` [drawing 1453] was 76 to 100%.
On to `COc1ccc2c(c1)CCC2C(=O)Nc1ccnc(-c2ccccn2)n1` (stereo not shown) [drawing 1688], for which the inhibition at 30 µM lay within 76 to 100%.
For `Nc1nc(O)c2nc[nH]c2n1` [drawing 1629], the inhibition at 30 µM fell in the range of 1 to 25%.
Still for that read-out and setting: the value for `O=C(c1csc2c(O)nc(-c3ccccn3)nc12)N1CCNC(c2ccccc2F)C1` (stereo not shown) [drawing 1669] was 76 to 100%.
Regarding `Cc1ccccc1N1CCN(C(=O)c2csc3c(O)nc(-c4ccccn4)nc23)CC1` [drawing 1633], the inhibition at 30 µM is 76 to 100%.
Compound `Cc1nc(-c2ccccn2)nc(O)c1CCC(=O)Nc1cc(F)ccc1F` [drawing 1503] had an inhibition at 30 µM of 76 to 100%.
Still for that read-out and setting: the value for `CCOC(=O)NC1CCN(C(=O)c2csc3c(O)nc(-c4ccccn4)nc23)CC1` [drawing 1574] was 51 to 75%; that for `COCCCCNC(=O)c1csc2nc(-c3ccccn3)nc(N3CCS(=O)(=O)CC3)c12` [drawing 1702] was 1 to 25%.
Consider `NC(=O)C1(CNc2nc(-c3ccccn3)nc3c2CCC3)CCCC1` [drawing 1514], for which the inhibition at 30 µM fell in the range of 76 to 100%.
Still for that read-out and setting: the value for `O=S1(=O)CCC(Nc2nc(-c3ccccn3)nc3scc(-c4ccccc4)c23)C1` (stereo not shown) [drawing 1615] was 76 to 100%; that for `O=C(c1cc2nc(-c3ccccn3)nc(O)c2s1)N1CCOC(c2ccccc2)C1` (stereo not shown) [drawing 1718] was 76 to 100%.
The same measure, in the same setting: the result for `CN(CCc1ccncc1)C(=O)c1csc2c(O)nc(-c3ccccn3)nc12` [drawing 1577] reads 25 to 50%; that for `O=C(CN1CCN(c2nc(-c3ccccn3)nc3sc(-c4ccccc4)cc23)CC1)N1CCCC1` [drawing 1606], 76 to 100%.
Compound `O=C(Nc1nnc(-c2ccccn2)[nH]1)C1CCCN(c2ncccn2)C1` (stereo not shown) [drawing 1426] showed an inhibition at 30 µM of 76 to 100%.
The same measure, in the same setting: the result for `Nc1nc(O)c2scc(Br)c2n1` [drawing 1557] reads 1 to 25%.
